Measurements: ChEMBL document CHEMBL1155873, “Sesquiterpenes from the Hainan Sponge Dysidea septosa” (J Nat Prod, 2008)

Each molecule was assayed against T1, Tyrosine-protein phosphatase non-receptor type 1 (Homo sapiens, UniProt P18031) (assay: Inhibition of human recombinant PTP1B catalytic domain).
T1 sequence (P18031 whole entry): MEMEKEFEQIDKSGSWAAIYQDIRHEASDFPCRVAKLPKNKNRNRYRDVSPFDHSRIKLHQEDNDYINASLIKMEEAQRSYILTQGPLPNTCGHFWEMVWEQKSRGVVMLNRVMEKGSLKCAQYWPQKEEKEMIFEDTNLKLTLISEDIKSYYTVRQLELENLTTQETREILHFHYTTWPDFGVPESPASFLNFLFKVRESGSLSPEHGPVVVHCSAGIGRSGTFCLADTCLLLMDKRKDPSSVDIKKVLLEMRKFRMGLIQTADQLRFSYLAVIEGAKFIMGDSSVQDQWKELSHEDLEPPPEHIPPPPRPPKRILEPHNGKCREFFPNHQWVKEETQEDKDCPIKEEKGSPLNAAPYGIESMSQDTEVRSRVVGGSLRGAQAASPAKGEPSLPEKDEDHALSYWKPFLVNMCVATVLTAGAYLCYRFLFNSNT

SMILES | IC50 [µM]
C[C@@H]1[C@@H]2C=C[C@@](C)(OO2)[C@@]1(C)CCC1=CC(O)OC1=O (some centres undefined) [LINGSHUIPEROXIDE] | 31.4
CC1=C[C@@H]2C[C@H](C)[C@]1(C)CCc1ccoc12 | 8.78
C=C1CCC[C@@H](C)[C@@]1(C)CCc1ccoc1 | 31.1
C=C1C=CC[C@@H](C)[C@@]1(C)CCC1=CC(O)OC1=O (some centres undefined) [HYDROXYBUTENOLIDE] | 46.7
